Source: the NIST ThermoML archive (doi:10.1016/j.jct.2016.08.008)

Assays:
[1] = for viscosity / mass density: 101.33 kPa, Liquid; for viscosity: Falling or rolling sphere viscometry; for mass density: Vibrating tube method
[2] = Molar enthalpy of transition or fusion; details: Crystal; DSC
[3] = activity coefficient (dimensionless); of the first substance listed, at infinite dilution; xn = mol fraction of the nth substance listed; details: 101.33 kPa, Liquid, Chromatography, x1 = 0

CCCCCCCCCCCCn1cc[n+](C)c1.O=S(=O)([N-]S(=O)(=O)C(F)(F)F)C(F)(F)F
[1]
Details | mass density [kg/m3] | viscosity [mPa·s]
298.15 K | 1242.9 | 125
303.15 K | 1238.8 | –
308.15 K | 1234.6 | 76.7
313.15 K | 1230.4 | –
318.15 K | 1226.2 | 52.7
323.15 K | 1222 | –
328.15 K | 1217.8 | 37
333.15 K | 1213.6 | –
338.15 K | 1209.5 | 26.6
343.15 K | 1205.3 | –
348.15 K | 1201.2 | 19.5
353.15 K | 1197.1 | –
358.15 K | 1193 | 14.7
363.15 K | 1188.9 | –
368.15 K | 1184.9 | 11.4

Details | Normal melting temperature [°C]
[1], Crystal, DTA | 19.2

Details | Molar enthalpy of transition or fusion [kcal/mol]
[2] | 8.6

C1CCCC1 [cyclopentane] + CCCCCCCCCCCCn1cc[n+](C)c1.O=S(=O)([N-]S(=O)(=O)C(F)(F)F)C(F)(F)F
[3]
Details | activity coefficient
318.15 K | 1.75
328.15 K | 1.77
338.15 K | 1.8
348.15 K | 1.82
358.15 K | 1.84
368.15 K | 1.86

CCCCCCCCCC [decane] + CCCCCCCCCCCCn1cc[n+](C)c1.O=S(=O)([N-]S(=O)(=O)C(F)(F)F)C(F)(F)F
[3]
Details | activity coefficient
318.15 K | 5.82
328.15 K | 5.88
338.15 K | 5.95
348.15 K | 6
358.15 K | 6.06
368.15 K | 6.12

CCOCC [diethyl ether] + CCCCCCCCCCCCn1cc[n+](C)c1.O=S(=O)([N-]S(=O)(=O)C(F)(F)F)C(F)(F)F
[3]
Details | activity coefficient
318.15 K | 0.983
328.15 K | 1.03
338.15 K | 1.07
348.15 K | 1.12
358.15 K | 1.16
368.15 K | 1.2

CC(C)OC(C)C [diisopropyl ether] + CCCCCCCCCCCCn1cc[n+](C)c1.O=S(=O)([N-]S(=O)(=O)C(F)(F)F)C(F)(F)F
[3]
Details | activity coefficient
318.15 K | 1.65
328.15 K | 1.72
338.15 K | 1.79
348.15 K | 1.86
358.15 K | 1.93
368.15 K | 1.99

CCCOCCC [dipropyl ether] + CCCCCCCCCCCCn1cc[n+](C)c1.O=S(=O)([N-]S(=O)(=O)C(F)(F)F)C(F)(F)F
[3]
Details | activity coefficient
318.15 K | 1.67
328.15 K | 1.73
338.15 K | 1.79
348.15 K | 1.84
358.15 K | 1.89
368.15 K | 1.94

CCO [ethanol] + CCCCCCCCCCCCn1cc[n+](C)c1.O=S(=O)([N-]S(=O)(=O)C(F)(F)F)C(F)(F)F
[3]
Details | activity coefficient
318.15 K | 1.38
328.15 K | 1.3
338.15 K | 1.23
348.15 K | 1.17
358.15 K | 1.11
368.15 K | 1.06

CCOC(C)=O [ethyl acetate] + CCCCCCCCCCCCn1cc[n+](C)c1.O=S(=O)([N-]S(=O)(=O)C(F)(F)F)C(F)(F)F
[3]
Details | activity coefficient
318.15 K | 0.541
328.15 K | 0.567
338.15 K | 0.593
348.15 K | 0.619
358.15 K | 0.645
368.15 K | 0.67

CCc1ccccc1 [ethylbenzene] + CCCCCCCCCCCCn1cc[n+](C)c1.O=S(=O)([N-]S(=O)(=O)C(F)(F)F)C(F)(F)F
[3]
Details | activity coefficient
318.15 K | 0.911
328.15 K | 0.951
338.15 K | 0.992
348.15 K | 1.03
358.15 K | 1.07
368.15 K | 1.11

CCCCCCC [heptane] + CCCCCCCCCCCCn1cc[n+](C)c1.O=S(=O)([N-]S(=O)(=O)C(F)(F)F)C(F)(F)F
[3]
Details | activity coefficient
318.15 K | 3.55
328.15 K | 3.6
338.15 K | 3.65
348.15 K | 3.7
358.15 K | 3.74
368.15 K | 3.78

C=CCCCC [hex-1-ene] + CCCCCCCCCCCCn1cc[n+](C)c1.O=S(=O)([N-]S(=O)(=O)C(F)(F)F)C(F)(F)F
[3]
Details | activity coefficient
318.15 K | 2.15
328.15 K | 2.2
338.15 K | 2.25
348.15 K | 2.29
358.15 K | 2.34
368.15 K | 2.38

CCCCCC [hexane] + CCCCCCCCCCCCn1cc[n+](C)c1.O=S(=O)([N-]S(=O)(=O)C(F)(F)F)C(F)(F)F
[3]
Details | activity coefficient
318.15 K | 2.96
328.15 K | 3.02
338.15 K | 3.09
348.15 K | 3.14
358.15 K | 3.2
368.15 K | 3.26

CC(C)c1ccccc1 [isopropylbenzene] + CCCCCCCCCCCCn1cc[n+](C)c1.O=S(=O)([N-]S(=O)(=O)C(F)(F)F)C(F)(F)F
[3]
Details | activity coefficient
318.15 K | 1.15
328.15 K | 1.2
338.15 K | 1.24
348.15 K | 1.28
358.15 K | 1.32
368.15 K | 1.36

CO [methanol] + CCCCCCCCCCCCn1cc[n+](C)c1.O=S(=O)([N-]S(=O)(=O)C(F)(F)F)C(F)(F)F
[3]
Details | activity coefficient
318.15 K | 1.29
328.15 K | 1.22
338.15 K | 1.15
348.15 K | 1.1
358.15 K | 1.05
368.15 K | 1.01

CCCC(=O)OC [methyl butanoate] + CCCCCCCCCCCCn1cc[n+](C)c1.O=S(=O)([N-]S(=O)(=O)C(F)(F)F)C(F)(F)F
[3]
Details | activity coefficient
318.15 K | 0.613
328.15 K | 0.643
338.15 K | 0.674
348.15 K | 0.704
358.15 K | 0.733
368.15 K | 0.762

COC(C)=O [methyl ethanoate] + CCCCCCCCCCCCn1cc[n+](C)c1.O=S(=O)([N-]S(=O)(=O)C(F)(F)F)C(F)(F)F
[3]
Details | activity coefficient
318.15 K | 0.503
328.15 K | 0.525
338.15 K | 0.546
348.15 K | 0.566
358.15 K | 0.586
368.15 K | 0.606

CCC(=O)OC [methyl propanoate] + CCCCCCCCCCCCn1cc[n+](C)c1.O=S(=O)([N-]S(=O)(=O)C(F)(F)F)C(F)(F)F
[3]
Details | activity coefficient
318.15 K | 0.531
328.15 K | 0.557
338.15 K | 0.583
348.15 K | 0.608
358.15 K | 0.634
368.15 K | 0.659

CC1CCCCC1 [methylcyclohexane] + CCCCCCCCCCCCn1cc[n+](C)c1.O=S(=O)([N-]S(=O)(=O)C(F)(F)F)C(F)(F)F
[3]
Details | activity coefficient
318.15 K | 2.42
328.15 K | 2.46
338.15 K | 2.49
348.15 K | 2.52
358.15 K | 2.55
368.15 K | 2.58

CCCCCCCCC [nonane] + CCCCCCCCCCCCn1cc[n+](C)c1.O=S(=O)([N-]S(=O)(=O)C(F)(F)F)C(F)(F)F
[3]
Details | activity coefficient
318.15 K | 4.92
328.15 K | 4.97
338.15 K | 5.03
348.15 K | 5.08
358.15 K | 5.13
368.15 K | 5.17

C=CCCCCCC [oct-1-ene] + CCCCCCCCCCCCn1cc[n+](C)c1.O=S(=O)([N-]S(=O)(=O)C(F)(F)F)C(F)(F)F
[3]
Details | activity coefficient
318.15 K | 3.03
328.15 K | 3.1
338.15 K | 3.17
348.15 K | 3.23
358.15 K | 3.29
368.15 K | 3.35

CCCCCCCC [octane] + CCCCCCCCCCCCn1cc[n+](C)c1.O=S(=O)([N-]S(=O)(=O)C(F)(F)F)C(F)(F)F
[3]
Details | activity coefficient
318.15 K | 4.17
328.15 K | 4.22
338.15 K | 4.27
348.15 K | 4.32
358.15 K | 4.37
368.15 K | 4.42

CCCCCO [pentan-1-ol] + CCCCCCCCCCCCn1cc[n+](C)c1.O=S(=O)([N-]S(=O)(=O)C(F)(F)F)C(F)(F)F
[3]
Details | activity coefficient
318.15 K | 1.52
328.15 K | 1.46
338.15 K | 1.4
348.15 K | 1.35
358.15 K | 1.3
368.15 K | 1.26

CCCC(C)=O [pentan-2-one] + CCCCCCCCCCCCn1cc[n+](C)c1.O=S(=O)([N-]S(=O)(=O)C(F)(F)F)C(F)(F)F
[3]
Details | activity coefficient
318.15 K | 0.421
328.15 K | 0.445
338.15 K | 0.468
348.15 K | 0.492
358.15 K | 0.516
368.15 K | 0.539

CCC(=O)CC [pentan-3-one] + CCCCCCCCCCCCn1cc[n+](C)c1.O=S(=O)([N-]S(=O)(=O)C(F)(F)F)C(F)(F)F
[3]
Details | activity coefficient
318.15 K | 0.418
328.15 K | 0.444
338.15 K | 0.47
348.15 K | 0.496
358.15 K | 0.521
368.15 K | 0.546

CCCCC [pentane] + CCCCCCCCCCCCn1cc[n+](C)c1.O=S(=O)([N-]S(=O)(=O)C(F)(F)F)C(F)(F)F
[3]
Details | activity coefficient
318.15 K | 2.55
328.15 K | 2.6
338.15 K | 2.66
348.15 K | 2.71
358.15 K | 2.76
368.15 K | 2.81

CCCO [propan-1-ol] + CCCCCCCCCCCCn1cc[n+](C)c1.O=S(=O)([N-]S(=O)(=O)C(F)(F)F)C(F)(F)F
[3]
Details | activity coefficient
318.15 K | 1.45
328.15 K | 1.36
338.15 K | 1.29
348.15 K | 1.22
358.15 K | 1.16
368.15 K | 1.11

CC(C)O [propan-2-ol] + CCCCCCCCCCCCn1cc[n+](C)c1.O=S(=O)([N-]S(=O)(=O)C(F)(F)F)C(F)(F)F
[3]
Details | activity coefficient
318.15 K | 1.34
328.15 K | 1.26
338.15 K | 1.18
348.15 K | 1.12
358.15 K | 1.07
368.15 K | 1.02

CCCc1ccccc1 [propylbenzene] + CCCCCCCCCCCCn1cc[n+](C)c1.O=S(=O)([N-]S(=O)(=O)C(F)(F)F)C(F)(F)F
[3]
Details | activity coefficient
318.15 K | 1.1
328.15 K | 1.15
338.15 K | 1.21
348.15 K | 1.25
358.15 K | 1.3
368.15 K | 1.35

c1ccncc1 [pyridine] + CCCCCCCCCCCCn1cc[n+](C)c1.O=S(=O)([N-]S(=O)(=O)C(F)(F)F)C(F)(F)F
[3]
Details | activity coefficient
318.15 K | 0.387
328.15 K | 0.404
338.15 K | 0.42
348.15 K | 0.435
358.15 K | 0.451
368.15 K | 0.466

C=Cc1ccccc1 [styrene] + CCCCCCCCCCCCn1cc[n+](C)c1.O=S(=O)([N-]S(=O)(=O)C(F)(F)F)C(F)(F)F
[3]
Details | activity coefficient
318.15 K | 0.632
328.15 K | 0.666
338.15 K | 0.702
348.15 K | 0.736
358.15 K | 0.771
368.15 K | 0.804

C1CCOC1 [tetrahydrofuran] + CCCCCCCCCCCCn1cc[n+](C)c1.O=S(=O)([N-]S(=O)(=O)C(F)(F)F)C(F)(F)F
[3]
Details | activity coefficient
318.15 K | 0.394
328.15 K | 0.417
338.15 K | 0.44
348.15 K | 0.462
358.15 K | 0.484
368.15 K | 0.508

c1ccsc1 [thiophene] + CCCCCCCCCCCCn1cc[n+](C)c1.O=S(=O)([N-]S(=O)(=O)C(F)(F)F)C(F)(F)F
[3]
Details | activity coefficient
318.15 K | 0.559
328.15 K | 0.579
338.15 K | 0.6
348.15 K | 0.62
358.15 K | 0.639
368.15 K | 0.658

Cc1ccccc1 [toluene] + CCCCCCCCCCCCn1cc[n+](C)c1.O=S(=O)([N-]S(=O)(=O)C(F)(F)F)C(F)(F)F
[3]
Details | activity coefficient
318.15 K | 0.699
328.15 K | 0.732
338.15 K | 0.765
348.15 K | 0.8
358.15 K | 0.832
368.15 K | 0.864

O [water] + CCCCCCCCCCCCn1cc[n+](C)c1.O=S(=O)([N-]S(=O)(=O)C(F)(F)F)C(F)(F)F
[3]
Details | activity coefficient
318.15 K | 4.49
328.15 K | 4.02
338.15 K | 3.64
348.15 K | 3.31
358.15 K | 3.03
368.15 K | 2.78
